Structures are written as SMILES.

From paper PMC10936602, “BaiJ and BaiB are key enzymes in the chenodeoxycholic acid 7α-dehydroxylation pathway in the gut microbe Clostridium scindens ATCC 35704” (Gut Microbes, 2024) come the findings set out here.

The target of test [1] is T1, BaiB ([Clostridium] scindens, UniProt A0A494WIV0).
T1 construct: recombinant in E. coli BL21-CodonPlus(DE3)-RIPL, pET28b+ or modified pET28b+, His and/or Strep tag
T1 sequence (A0A494WIV0 1-507): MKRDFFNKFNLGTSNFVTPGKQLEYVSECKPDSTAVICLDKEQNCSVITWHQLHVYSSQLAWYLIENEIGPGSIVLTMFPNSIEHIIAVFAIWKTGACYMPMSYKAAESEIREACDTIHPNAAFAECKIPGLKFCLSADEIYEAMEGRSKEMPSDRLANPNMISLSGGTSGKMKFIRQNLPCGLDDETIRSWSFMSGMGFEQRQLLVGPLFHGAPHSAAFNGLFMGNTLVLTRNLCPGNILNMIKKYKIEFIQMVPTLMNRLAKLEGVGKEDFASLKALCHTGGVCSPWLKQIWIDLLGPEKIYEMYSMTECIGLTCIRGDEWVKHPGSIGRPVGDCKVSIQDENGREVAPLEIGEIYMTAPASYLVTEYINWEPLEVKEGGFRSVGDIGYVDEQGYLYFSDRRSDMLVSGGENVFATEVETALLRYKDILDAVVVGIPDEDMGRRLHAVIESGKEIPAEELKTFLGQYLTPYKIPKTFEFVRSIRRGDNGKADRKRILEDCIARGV
The experiment in a line: LC/HRMS substrate depletion and detection of CoA conjugate. It is filed as biochemical. To be noted: CoA ligation; CoA and ATP; HEPES pH 7.5, anoxic, 18 h.

Test [2] has as its target T2, BaiJ ([Clostridium] scindens, UniProt B0NCC6).
T2 construct: gene urdA; recombinant in E. coli BL21-CodonPlus(DE3)-RIPL, pET28b+ or modified pET28b+, His and/or Strep tag, FAD and FMN added before lysis
T2 sequence (B0NCC6 1-563): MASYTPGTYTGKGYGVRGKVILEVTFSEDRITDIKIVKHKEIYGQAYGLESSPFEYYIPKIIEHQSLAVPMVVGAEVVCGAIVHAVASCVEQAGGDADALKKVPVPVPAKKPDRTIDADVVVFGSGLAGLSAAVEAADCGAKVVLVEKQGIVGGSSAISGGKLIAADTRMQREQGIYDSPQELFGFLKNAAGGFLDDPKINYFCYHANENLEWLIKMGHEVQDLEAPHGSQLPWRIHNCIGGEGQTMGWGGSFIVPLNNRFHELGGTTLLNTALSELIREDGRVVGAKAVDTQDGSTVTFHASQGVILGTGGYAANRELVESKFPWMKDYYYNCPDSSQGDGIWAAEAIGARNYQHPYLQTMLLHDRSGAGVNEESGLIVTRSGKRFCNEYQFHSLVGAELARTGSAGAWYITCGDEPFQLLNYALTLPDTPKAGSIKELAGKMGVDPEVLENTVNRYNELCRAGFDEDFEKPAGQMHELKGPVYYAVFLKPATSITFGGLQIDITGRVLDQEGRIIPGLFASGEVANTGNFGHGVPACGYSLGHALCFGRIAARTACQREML
The experiment in a line: LC/HRMS product quantification, single enzyme. Type of test: biochemical. To be noted: reduction; NAD, NADP, NADH, NADPH, FMN, FAD, CoA, ATP, ADP 500 μM each; HEPES pH 7.5, 37 °C, anoxic.

Turning to `C[C@H](CCC(=O)O)[C@H]1CC[C@H]2[C@@H]3[C@H](O)CC4=CC(=O)CC[C@]4(C)[C@H]3CC[C@]12C` [3-oxo-Δ^4-CDCA], the “LC/HRMS substrate depletion and detection of CoA conjugate” value in test [1] was “the concentration of 3-oxo-Δ^4-CDCA decreased significantly in the reaction with BaiB”.

With `C[C@H](CCC(=O)O)[C@H]1CC[C@H]2[C@@H]3CCC4=CC(=O)CC[C@]4(C)[C@H]3CC[C@]12C` [3-oxo-Δ^4-LCA], the “LC/HRMS product quantification, single enzyme” value in test [2] was “BaiJ reduces 3-oxo-Δ^4-LCA and forms 3-oxo-allo-LCA as the only reduced product”.
